The test system of the assay is ApoE-KO mice. The assay is described as follows: Test Example 2: influence of EMIQ and QC on atherosclerosis, thoracic-abdominal aortic lesion area. Format: in vivo. The note with it: low dose 33 μmol/kg in feed, 14 weeks, versus control group (G1), FIG. 2.

Procedure: The EMIQ prepared in Preparation Example 2 and the QC prepared in Preparation Example 3 were orally administered for 14 weeks to ApoE-KO mice in order to elucidate the atherosclerosis progression inhibiting effect of these substances. The atherosclerosis progression inhibiting effect was evaluated based on the atherosclerotic lesion area rate (%) at the thoracic-abdominal aorta of the ApoE-KO mice.
Specifically, before the test the test animals (ApoE-KO mice) were housed for 11 days for environmental acclimation and were then assigned, taking into consideration the body weight and total serum cholesterol (T-cho value), into the following four groups (8 animals in each group) in a completely randomized design using a group assignment system (Statlight #11 Group Assignment, Yukms Co., Ltd., Tokyo): the control group (a group not receiving either substance, G1), a group receiving quercetin admixed in the feed at 33 μmol/kg (low-dose QC group, G2), a group receiving EMIQ admixed in the feed at 33 μmol/kg (low-dose EMIQ group, G3), and a group receiving EMIQ admixed in the feed at 330 μmol/kg (high-dose EMIQ group, G4). […]

As for `O=c1c(O)c(-c2ccc(O)c(O)c2)oc2cc(O)cc(O)c12` [QC, quercetin], the “thoracic-abdominal aortic atherosclerotic lesion area rate (%)” value is listed as “no difference”.

The values above are taken from patent US20080182893A1, “Anti-Atherogenic Composition” (SAN-EI GEN F.F.I., INC., priority 2005, published 2008).
